Laboratory results from patent US8008303B2, “Biphenyl derivatives and their use in treating hepatitis C” (AstraZeneca AB, priority 2005, dated 2011).
pIC50: −log10 of the molar value.

What was measured:
[1] = tested on: HCV replicon cells Huh 9B; assay: HCV replicon assay (luciferase readout); type: cell-based; conditions: Hepatitis C virus, 72 h, concentration reducing replicon level (luciferase activity) by 50% vs untreated cell control; 72 h incubation
Outline: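 Compounds, made up at twice final strength (final DMSO 1%), were added to subgenomic replicon cells one day after plating. Incubation then ran 72 h at 37 °C, 5% CO2, without G418. Replication was quantified as firefly luciferase luminescence in lysed cells, with cytotoxicity assessed on a duplicate clear plate.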

[2] = tested on: HCV replicon cells Huh 9B; type: cell-based; conditions: concentration reducing total cell area by 50% relative to DMSO controls; methylene blue, absorbance 620 nm; 72 h incubation

`Cc1ccc(NC(=O)c2ccc(Br)cc2)cc1-c1ccc(C(=O)Nc2ccc3cn[nH]c3c2)cc1` [Example 211, 5′-(4-Bromo-benzoylamino)-2′-methyl-biphenyl-4-carboxylic acid (1H-indazol-6-yl)-amide] was tested, and the pIC50 [1] was 5.30 to 6.00 and the TD50 [2] was “* (* < 50 μM)”.

`Cc1ccc(NC(=O)c2ccc(Br)cc2)cc1-c1ccc(C(=O)Nc2ccc(-c3cnco3)cc2)cc1` [Example 212, 5′-(4-Bromo-benzoylamino)-2′-methyl-biphenyl-4-carboxylic acid (4-oxazol-5-yl-phenyl)-amide] was tested, and the pIC50 [1] was < 5.30 and the TD50 [2] was “** (** > 50 μM)”.

`Cc1ccc(NC(=O)c2cccs2)cc1-c1ccc(C(=O)Nc2ccc3cn[nH]c3c2)cc1` [Example 213, Thiophene-2-carboxylic acid [4′-(1H-indazol-6-ylcarbamoyl)-6-methyl-biphenyl-3-yl]-amide] was tested, and the pIC50 [1] was 5.30 to 6.00 and the TD50 [2] was “* (* < 50 μM)”.

In the case of `Cc1cccc(CNC(=O)c2ccc(-c3cc(NC(=O)c4cn[nH]c4)ccc3C)cc2)c1` [Example 214, 1H-Pyrazole-4-carboxylic acid [6-methyl-4′-(3-methyl-benzylcarbamoyl)-biphenyl-3-yl]-amide], the pIC50 [1] was < 5.30 and the TD50 [2] was “* (* < 50 μM)”.

`Cc1cccc(CNC(=O)c2ccc(-c3cc(NC(=O)c4ccncc4)ccc3C)cc2)c1` [Example 215, N-[6-Methyl-4′-(3-methyl-benzylcarbamoyl)-biphenyl-3-yl]-isonicotinamide] was tested, and the pIC50 [1] was < 5.30 and the TD50 [2] was “* (* < 50 μM)”.

With `Cc1ccc(NC(=O)C2CC2)cc1-c1ccc(C(=O)NCc2cccc(Cl)c2)cc1` [Example 216, 5′-(Cyclopropanecarbonyl-amino)-2′-methyl-biphenyl-4-carboxylic acid 3-chloro-benzylamide] the pIC50 [1] was < 5.30 and the TD50 [2] was “* (* < 50 μM)”.

With `Cc1ccc(NC(=O)C2CC2)cc1-c1ccc(C(=O)NCc2ccc(N3CCN(C)CC3)cc2)cc1` [Example 217, 5′-(Cyclopropanecarbonyl-amino)-2′-methyl-biphenyl-4-carboxylic acid 4-(4-methyl-piperazin-1-yl)-benzylamide] the pIC50 [1] was < 5.30 and the TD50 [2] was “* (* < 50 μM)”.

`Cc1ccc(NC(=O)C2CC2)cc1-c1ccc(C(=O)Nc2ccc(-n3cncn3)cc2)cc1` [Example 218, 5′-(Cyclopropanecarbonyl-amino)-2′-methyl-biphenyl-4-carboxylic acid (4-[1,2,4]triazol-1-yl-phenyl)-amide] was tested, and the pIC50 [1] was > 6.00 and the TD50 [2] was “* (* < 50 μM)”.

For `Cc1ccc(NC(=O)C2CCCCC2)cc1-c1ccc(C(=O)Nc2ccc(-n3cncn3)cc2)cc1` [Example 219, 5′-(Cyclohexanecarbonyl-amino)-2′-methyl-biphenyl-4-carboxylic acid (4-[1,2,4]triazol-1-yl-phenyl)-amide], the pIC50 [1] was 5.30 to 6.00 and the TD50 [2] was “* (* < 50 μM)”.

`CCC1(c2ccc(NC(=O)c3ccc(-c4cc(NC(=O)C5CC5)ccc4C)cc3)cc2)CCC(=O)NC1=O` (centres unmarked) [Example 220, 5′-(Cyclopropanecarbonyl-amino)-2′-methyl-biphenyl-4-carboxylic acid [4-(3-ethyl-2,6-dioxo-piperidin-3-yl)-phenyl]-amide] was tested, and the pIC50 [1] was > 6.00 and the TD50 [2] was “* (* < 50 μM)”.

In the case of `CCC1(c2ccc(NC(=O)c3ccc(-c4cc(NC(=O)C5CCCCC5)ccc4C)cc3)cc2)CCC(=O)NC1=O` (centres unmarked) [Example 221, 5′-(Cyclohexanecarbonyl-amino)-2′-methyl-biphenyl-4-carboxylic acid [4-(3-ethyl-2,6-dioxo-piperidin-3-yl)-phenyl]-amide], the pIC50 [1] was > 6.00 and the TD50 [2] was “* (* < 50 μM)”.

In the case of `Cc1ccc(NC(=O)C2CCCCC2)cc1-c1ccc(C(=O)Nc2ccc(CN(C)C)cc2)cc1` [Example 222, 5′-(Cyclohexanecarbonyl-amino)-2′-methyl-biphenyl-4-carboxylic acid (4-dimethylaminomethyl-phenyl)-amide], the pIC50 [1] was 5.30 to 6.00 and the TD50 [2] was “* (* < 50 μM)”.

In the case of `Cc1ccc(NC(=O)C2CC2)cc1-c1ccc(C(=O)Nc2ccc(CN(C)C)cc2)cc1` [Example 223, 5′-(Cyclopropanecarbonyl-amino)-2′-methyl-biphenyl-4-carboxylic acid (4-dimethylaminomethyl-phenyl)-amide], the pIC50 [1] was 5.30 to 6.00 and the TD50 [2] was “* (* < 50 μM)”.

For `Cc1ccc(NC(=O)C2CC2)cc1-c1ccc(C(=O)Nc2ccccc2CN2CCCCC2)cc1` [Example 224, 5′-(Cyclopropanecarbonyl-amino)-2′-methyl-biphenyl-4-carboxylic acid (2-piperidin-1-ylmethyl-phenyl)-amide], the pIC50 [1] was 5.30 to 6.00 and the TD50 [2] was “* (* < 50 μM)”.

With `Cc1ccc(NC(=O)C2CC2)cc1-c1ccc(C(=O)Nc2cccc(CN(C)C)c2)cc1` [Example 225, 5′-(Cyclopropanecarbonyl-amino)-2′-methyl-biphenyl-4-carboxylic acid (3-dimethylaminomethyl-phenyl)-amide] the pIC50 [1] was < 5.30 and the TD50 [2] was “* (* < 50 μM)”.

`Cc1ccc(NC(=O)C2CCCCC2)cc1-c1ccc(C(=O)Nc2ccc(CN3CCOCC3)cc2)cc1` [Example 226, 5′-(Cyclohexanecarbonyl-amino)-2′-methyl-biphenyl-4-carboxylic acid (4-morpholin-4-ylmethyl-phenyl)-amide] was tested, and the pIC50 [1] was > 6.00 and the TD50 [2] was “* (* < 50 μM)”.

`Cc1ccc(NC(=O)C2CCCCC2)cc1-c1ccc(C(=O)Nc2ccc(CN3CCCC3)cc2)cc1` [Example 227, 5′-(Cyclohexanecarbonyl-amino)-2′-methyl-biphenyl-4-carboxylic acid (4-pyrrolidin-1-ylmethyl-phenyl)-amide] was tested, and the pIC50 [1] was 5.30 to 6.00 and the TD50 [2] was “* (* < 50 μM)”.

With `Cc1ccc(NC(=O)C2CC2)cc1-c1ccc(C(=O)Nc2ccc(CN3CCCCC3)cc2)cc1` [Example 228, 5′-(Cyclopropanecarbonyl-amino)-2′-methyl-biphenyl-4-carboxylic acid (4-piperidin-1-ylmethyl-phenyl)-amide] the pIC50 [1] was 5.30 to 6.00 and the TD50 [2] was “* (* < 50 μM)”.

In the case of `Cc1ccc(NC(=O)C2CC2)cc1-c1ccc(C(=O)Nc2ccc(CN3CCCC3)cc2)cc1` [Example 230, 5′-(Cyclopropanecarbonyl-amino)-2′-methyl-biphenyl-4-carboxylic acid (4-pyrrolidin-1-ylmethyl-phenyl)-amide], the pIC50 [1] was 5.30 to 6.00 and the TD50 [2] was “* (* < 50 μM)”.

In the case of `Cc1ccc(NC(=O)C2CCCCC2)cc1-c1ccc(C(=O)Nc2ccc(-c3ccno3)cc2)cc1` [Example 231, 5′-(Cyclohexanecarbonyl-amino)-2′-methyl-biphenyl-4-carboxylic acid (4-isoxazol-5-yl-phenyl)-amide], the pIC50 [1] was < 5.30 and the TD50 [2] was “* (* < 50 μM)”.

For `Cc1ccc(NC(=O)C2CCCCC2)cc1-c1ccc(C(=O)Nc2ccc(CO)cc2)cc1` [Example 232, 5′-(Cyclohexanecarbonyl-amino)-2′-methyl-biphenyl-4-carboxylic acid (4-hydroxymethyl-phenyl)-amide], the pIC50 [1] was > 6.00 and the TD50 [2] was “* (* < 50 μM)”.

With `Cc1ccc(NC(=O)c2ccco2)cc1-c1ccc(C(=O)Nc2ccc3cc[nH]c3c2)cc1` [Example 233, Furan-2-carboxylic acid [4′-(1H-indol-6-ylcarbamoyl)-6-methyl-biphenyl-3-yl]-amide] the pIC50 [1] was > 6.00 and the TD50 [2] was “* (* < 50 μM)”.

In the case of `CCCS(=O)(=O)N1CCN(Cc2ccc(NC(=O)c3ccc(-c4cc(NC(=O)[C@H]5CCCCN5)ccc4OC(F)(F)F)cc3)cc2)CC1` [Example 234, (R)-Piperidine-2-carboxylic acid (4′-{4-[4-(propane-1-sulfonyl)-piperazin-1-ylmethyl]-phenylcarbamoyl}-6-trifluoromethoxy-biphenyl-3-yl)-amide], the pIC50 [1] was > 6.00 and the TD50 [2] was “* (* < 50 μM)”.

In the case of `CS(=O)(=O)N1CCN(Cc2ccc(NC(=O)c3ccc(-c4cc(NC(=O)NC5CCCCC5)ccc4OC(F)(F)F)cc3)cc2)CC1` [Example 235, 5′-(3-Cyclohexyl-ureido)-2′-trifluoromethoxy-biphenyl-4-carboxylic acid [4-(4-methanesulfonyl-piperazin-1-ylmethyl)-phenyl]-amide], the pIC50 [1] was > 6.00 and the TD50 [2] was “* (* < 50 μM)”.

`CCCS(=O)(=O)N1CCN(Cc2ccc(NC(=O)c3ccc(-c4cc(NC(=O)[C@@H]5CCCN5)ccc4OC(F)(F)F)cc3)cc2)CC1` [Example 236, (S)-Pyrrolidine-2-carboxylic acid (4′-{4-[4-(propane-1-sulfonyl)-piperazin-1-ylmethyl]-phenylcarbamoyl}-6-trifluoromethoxy-biphenyl-3-yl)-amide] was tested, and the pIC50 [1] was 5.30 to 6.00 and the TD50 [2] was “* (* < 50 μM)”.

With `CCCS(=O)(=O)N1CCN(Cc2ccc(NC(=O)c3ccc(-c4cc(NC(=O)C5CC5)ccc4OC(F)(F)F)cc3)cc2)CC1` [Example 237, 5′-(Cyclopropanecarbonyl-amino)-2′-trifluoromethoxy-biphenyl-4-carboxylic acid {4-[4-(propane-1-sulfonyl)-piperazin-1-ylmethyl]-phenyl}-amide] the pIC50 [1] was > 6.00 and the TD50 [2] was “* (* < 50 μM)”.

For `CCCS(=O)(=O)N1CCN(Cc2ccc(NC(=O)c3ccc(-c4cc(NC(=O)[C@@H]5CCCCN5)ccc4OC(F)(F)F)cc3)cc2)CC1` [Example 238, (S)-Piperidine-2-carboxylic acid (4′-{4-[4-(propane-1-sulfonyl)-piperazin-1-ylmethyl]-phenylcarbamoyl}-6-trifluoromethoxy-biphenyl-3-yl)-amide], the pIC50 [1] was > 6.00 and the TD50 [2] was “* (* < 50 μM)”.

In the case of `CN1CCN(C(=O)Nc2ccc(OC(F)(F)F)c(-c3ccc(C(=O)Nc4ccc(CN5CCN(S(C)(=O)=O)CC5)cc4)cc3)c2)CC1` [Example 239, 4-Methyl-piperazine-1-carboxylic acid {4′-[4-(4-methanesulfonyl-piperazin-1-ylmethyl)-phenylcarbamoyl]-6-trifluoromethoxy-biphenyl-3-yl}-amide], the pIC50 [1] was > 6.00 and the TD50 [2] was “* (* < 50 μM)”.
